B1: Daclizumab (antibody, chains of the INN, looked up, V domains shown)
VH: QVQLVQSGAEVKKPGSSVKVSCKASGYTFTSYRMHWVRQAPGQGLEWIGYINPSTGYTEYNQKFKDKATITADESTNTAYMELSSLRSEDTAVYYCARGGGVFDYWGQGTLVTVSS
VL: DIQMTQSPSTLSASVGDRVTITCSASSSISYMHWYQQKPGKAPKLLIYTTSNLASGVPARFSGSGSGTEFTLTISSLQPDDFATYYCHQRSTYPLTFGQGTKVEVK
notes: humanized monoclonal antibody against the alpha chain of IL2-receptor complex, CAS number 152923-59-3; b50 calls it Simulect

Experiments:
Format in all cases: cell-based, human
CMV-specific T cells [1] = experiment: CD4+ and CD8+ expression of CMV-specific T cells after 18 days of expansion (flow cytometry); settings: for CD4+/CD8+ T cell ratio: after 18 days of expansion, Sirolimus LD 20 nmol/l or VLD 2 nmol/l, aIL2R 20 μg/mL, every 2 days; for CD4+ T cell proportion in the culture: after 18 d expansion
Experimental: (§1) CMV-specific T-cells were enriched and expanded using a previously described technique (Becker et al., Nat. Med. 2001, 7, 1159-62). Briefly, 4×10^7 autologous PBMCs were stimulated for 6 h with 1 μg/mL overlapping human cytomegalovirus phosphoprotein 65 (pp65) and immediately early 1 protein (IE1) peptide pools (JPT Peptide Technologies). Pools consisted of 15-mer peptides overlapping by 10 amino acids and were dissolved in dimethyl sulfoxide (DMSO). IFNγ producing cells underwent positive selection by the IFNγ capture-system (Miltenyi Biotech) according to the protocol provided by the manufacturer. IFNγ+ cells were next cultured for 18 days in 24-well plates together with 10^7 irradiated autologous PBMCs using RPMI 1640 supplemented with 10% fetal bovine serum 1% Penicillin/Streptomycin (Biochrom) and 50 U/mL rIL2 (Chiron) and 10 ng/mL rIL7 (Cellgenix) or solitary when indicated elsewise. Where indicated, either mTor-inhibitor (sirolimus, Sigma-Aldrich) at very low dose (VLD, 2 nM) and low dose (LD, 20 nM) or IL2 receptor antagonist (Basiliximab, Simulect, Novartis) at 20 μg/mL were added from day 1 on every two days together with subsequent media supplementation.
Following antigen specific stimulation, cytokine secretion (IFNγ, TNFα and IL2) and activation marker expression (CD137 and CD154) were determined by intracellular fluorescence staining. All antibodies were purchased from Becton Dickinson (BD), except indicated. Virus infected monocytes and peptide-pool loaded LCL or monocytes (1 μg/mL IE-1/pp65) were added to T cells in diluting ratio of 1:10. Unpulsed LCL or monocytes (DMSO incubated) display unstimulated control. For effector cytokine detection, cultured T cells were re-stimulated for 18 h in the presence of 1 μg/mL brefeldin A (Sigma-Aldrich). For CD107a (H4A3) detection, 2 μM monensin (Golgi Stop, BD) was ancillary added. Cells were then harvested and phenotype was stained with monoclonal antibodies for surface markers CD3 (UCHT1, eBioscience), CD8 (3B5, Invitrogen) and CD4 (SK3). To define memory phenotypes, T cells were extracellularly stained for CCR7 (#150503, R&D), CD62L (DREG56, Beckman Coulter), CD45RA (2H4LDH11LDB9, Beckman Coulter) and CD127 (hIL-7R-M21). To exclude dead cells, live/dead-discrimination staining-dye (Invitrogen) was added. Subsequently, cells were permeabilized with Perm2 solution (BD Biosciences) and stained for IFNγ (4S.B3, eBiosciences), TNFα (MAb11), IL2 (MQ1-17H12), CD137 (4B4-1) and CD154 (TRAP1). To define regulatory T cells, T cells were stained intranuclear for Foxp3 (259D/C7) and Helios (22F6, BioLegend). For intracellular staining of Foxp3 and Helios, Foxp3 staining kit from eBioscience was used. Cells were measured with a LSR-II flow cytometer and analyzed using FlowJo Version 8 software (Tree Star). […]

CMV-specific T cells [2] = experiment: Differentiation / central memory phenotype (CCR7, CD45RA, CD62L, CD127) of expanded CMV-specific T cells; settings: for CD62L expression on purified CD8+ T cells: CD8+ T cells cultured separately; for CD62L expression on purified CD8+ T cells / CD62L expression, CD8+ T cell bulk cultures and separately cultured CD4+ T cells: FIG. 12; for expression of the cell surface marker CD62L: CMV specific T-cell lines, day 18, six independent experiments; for central/memory T cells (CCR7+ CD45RA-): after 18 days of expansion; for expansion rate and keeping the TCM phenotype with full functionality: cultivation with both IL-2 and IL-7, FIG. 13; for CD62L expression, CD8+ T cell bulk cultures and separately cultured CD4+ T cells: rapamycin LD; for TCM formation: together with either IL-2 or IL-7, FIG. 13, four independent experiments
Experimental: as §1
(§2) Following antigen specific stimulation, cytokine secretion (IFNγ, TNFα and IL2) and activation marker expression (CD137 and CD154) were determined by intracellular fluorescence staining. All antibodies were purchased from Becton Dickinson (BD), except indicated. Virus infected monocytes and peptide-pool loaded LCL or monocytes (1 μg/mL IE-1/pp65) were added to T cells in diluting ratio of 1:10. Unpulsed LCL or monocytes (DMSO incubated) display unstimulated control. For effector cytokine detection, cultured T cells were re-stimulated for 18 h in the presence of 1 μg/mL brefeldin A (Sigma-Aldrich). For CD107a (H4A3) detection, 2 μM monensin (Golgi Stop, BD) was ancillary added. Cells were then harvested and phenotype was stained with monoclonal antibodies for surface markers CD3 (UCHT1, eBioscience), CD8 (3B5, Invitrogen) and CD4 (SK3). To define memory phenotypes, T cells were extracellularly stained for CCR7 (#150503, R&D), CD62L (DREG56, Beckman Coulter), CD45RA (2H4LDH11LDB9, Beckman Coulter) and CD127 (hIL-7R-M21). To exclude dead cells, live/dead-discrimination staining-dye (Invitrogen) was added. Subsequently, cells were permeabilized with Perm2 solution (BD Biosciences) and stained for IFNγ (4S.B3, eBiosciences), TNFα (MAb11), IL2 (MQ1-17H12), CD137 (4B4-1) and CD154 (TRAP1). To define regulatory T cells, T cells were stained intranuclear for Foxp3 (259D/C7) and Helios (22F6, BioLegend). For intracellular staining of Foxp3 and Helios, Foxp3 staining kit from eBioscience was used. Cells were measured with a LSR-II flow cytometer and analyzed using FlowJo Version 8 software (Tree Star). Lymphocytes were gated based on the FSC versus SSC profile and subsequently gated on FSC (height) versus FSC to exclude doublets.

CMV-specific T cells [3] = experiment: Intracellular cytokine and activation marker staining after antigen specific stimulation with peptide loaded APCs; settings: for quantity and quality of virus-specific T cells: in vitro
Experimental: as §2
CD4+ and CD8+ T cells (A Sirolimus; B aIL2R antagonist). Frequencies were assessed following antigen specific stimulation. Specific T-cells were stimulated for 18 h (16 h Brefeldin A) w/peptide loaded APCs in ratio of 1:10. APCs were pulsed with 1 μg/mL IE-1/pp65 peptide pool. IFNγ, TNFα and IL2 cytokine secretion and CD137 and CD154 activation marker expression were determined by intracellular staining. Cells were permeabilized and stained for IFNγ, IL2, TNFα, live/dead dye, CD3, CD4, CD8, CD137 and CD154.

[4] = test system: CMV strain NEWT infected autologous monocytes; experiment: Response of expanded T cells to NEWT infected autologous monocytes / iDC; settings: co-culture 18 h, T cell/target ratio 10:1
Experimental: Differentiated monocytes infected with CMV-related laboratory wildtype strain NEWT were used as targets. To mimic CMV-infection, autologous LCL were pulsed with 1 μg/mL overlapping CMVpp65/IE-1 peptide pools, whereas unpulsed LCL display uninfected targets. Targets were labeled with 10 μM carboxyfluorescein succinimidyl ester (CFDA-SE Molecular Probes). As controls, unpulsed LCL and uninfected differentiated monocytes (Fibroblast incubated) were labeled with 5 μM dimethyldodecylamine oxide-succinimidyl ester (Far Red; Invitrogen). Cells were co-cultured for 16 h in T cell/target ratio of 10:1. Probes were analyzed as triplicates using LSR-II flow cytometer. […] Analysis was gated on live/dead-discrimination staining-dye negative cells (near-IR fluorescent reactive dye, Invitrogen). The mean percent survival of pulsed or NEWT infected targets was calculated relative to antigen-unpulsed controls. Percentaged lytic activity of target lysis was calculated as follows: mean percent survival of targets in cultures containing defined numbers of effector T cells in comparison to control cells without T cells. […]
Following antigen specific stimulation, cytokine secretion (IFNγ, TNFα and IL2) and activation marker expression (CD137 and CD154) were determined by intracellular fluorescence staining. […] Cells were measured with a LSR-II flow cytometer and analyzed using FlowJo Version 8 software (Tree Star). […]

CMV-specific T cells [5] = experiment: Expansion of CMV-specific T cell culture over 18 days; settings: for expansion of central memory T cells (TCM): after 18 d of treatment, FIG. 4D
Experimental: as §1

[6] = day 18, after antigen specific stimulation

Molecule | CD4+/CD8+ T cell ratio (CMV-specific T cells [1]) | CD4+ T cell proportion in the culture (CMV-specific T cells [1]) | CD62L expression on purified CD8+ T cells (CMV-specific T cells [2]) | expression of the cell surface marker CD62L (CMV-specific T cells [2]) | central/memory T cells (CCR7+ CD45RA-) (CMV-specific T cells [2]) | expansion rate and keeping the TCM phenotype with full functionality (CMV-specific T cells [2]) | CD62L expression, CD8+ T cell bulk cultures and separately cultured CD4+ T cells (CMV-specific T cells [2]) | TCM formation (CMV-specific T cells [2]) | CD137 activation marker expression on CD8+ T cells (CMV-specific T cells [3]; [6]) | CD137 and CD154 activation marker expression on CD4+ T cells (CMV-specific T cells [3]; [6]) | quantity and quality of virus-specific T cells (CMV-specific T cells [3]) | response to NEWT infected autologous monocytes (IFNγ, TNFα, CD137, CD154) [4] | clonal expansion (CMV-specific T cells [5]; 18 days of expansion) | expansion of central memory T cells (TCM) (CMV-specific T cells [5])
CO[C@H]1C[C@@H]2CC[C@@H](C)[C@@](O)(O2)C(=O)C(=O)N2CCCC[C@H]2C(=O)O[C@H]([C@H](C)C[C@@H]2CC[C@@H](O)[C@H](OC)C2)CC(=O)[C@H](C)/C=C(\C)[C@@H](O)[C@@H](OC)C(=O)[C@H](C)C[C@H](C)/C=C/C=C/C=C/1C [Sirolimus] | more balanced CD4+/CD8+ T cell ratio | increased the CD4+ T cell proportion | could not be enhanced | significant prolonged expression | significantly increases central/memory T cells | best results | increased CD62L expression | promotes TCM formation | dose-dependent elevated | not impaired | enhance the quantity and quality | superiorly respond | without affecting clonal expansion | sequential expansion of both CD4 and CD8 central memory T cells
Basiliximab [aIL2R] | more balanced CD4+/CD8+ T cell ratio | – | could not be enhanced | significant prolonged expression | significantly increases central memory T cells | best results | increased CD62L expression | promotes TCM formation | dose-dependent elevated | – | – | superiorly respond | – | sequential expansion of both CD4 and CD8 central memory T cells
B1 | – | increased the CD4+ T cell proportion | – | – | – | – | – | – | – | – | enhance the quantity and quality | – | – | –
